Common to all, as to assay: relative viability (nuclei count vs DMSO), 5 days (fraction); higher = more cells survive
Compound in experiment [1]: C1=CC=C2C(=C1)C=CC(=C2SSC3=C(C=CC4=CC=CC=C43)O)O [IPA-3] + COc1cccc2cc(-c3nc([C@H]4CC[C@H](C(=O)O)CC4)n4ncnc(N)c34)[nH]c12 [OSI-027] (partner 0.5 µM)
In a few lines:
(§1)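 Lung cancer cell lines in 1536-well plates got either a single drug or a fixed anchor-drug dose together with five library-drug doses (not always all listed) in √10 steps, by pin tool, on the day after seeding. Nuclei were counted after 5 days, and relative viability is the treated-to-vehicle ratio of nuclei counts. Values are medians of duplicate plates.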

Compound in experiment [2]: Cc1ccc(-n2nc(C(C)(C)C)cc2NC(=O)Nc2ccc(OCCN3CCOCC3)c3ccccc23)cc1 [Doramapimod] + CS(=O)(=O)CCNCc1ccc(-c2ccc3ncnc(Nc4ccc(OCc5cccc(F)c5)c(Cl)c4)c3c2)o1 [Lapatinib] (partner 2 µM)
The method, boiled down:
as §1

Compound in experiment [3]: Cn1c(Nc2ccc(C(F)(F)F)cc2)nc2cc(Oc3ccnc(-c4ncc(C(F)(F)F)[nH]4)c3)ccc21 [RAF265] + CCNC(=O)c1noc(-c2cc(C(C)C)c(O)cc2O)c1-c1ccc(CN2CCOCC2)cc1 [Luminespib] (partner 0.01 µM)
In a few lines: as §1

Compound in experiment [4]: Cn1c(Nc2ccc(C(F)(F)F)cc2)nc2cc(Oc3ccnc(-c4ncc(C(F)(F)F)[nH]4)c3)ccc21 [RAF265] + COc1cc2c(Oc3ccc(NC(=O)C4(C(=O)Nc5ccc(F)cc5)CC4)cc3F)ccnc2cc1OCCCN1CCOCC1 [Foretinib] (partner 0.25 µM)
In a few lines: as §1

Regarding UMC-11, the relative viability in experiment [1] (first compound 0.2 µM) amounted to 0.5; in experiment [1] (first compound 0.6325 µM), 0.49; in experiment [1] (first compound 2 µM), 0.426; in experiment [1] (first compound 6.325 µM), 0.458; in experiment [1] (first compound 20 µM), 0.502; in experiment [2] (first compound 0.02 µM), 1.09. The relative viability in experiment [2] (first compound 0.06325 µM) was 0.957; in experiment [2] (first compound 0.2 µM), 0.901; in experiment [2] (first compound 0.6325 µM), 0.743; in experiment [2] (first compound 2 µM), 0.654; in experiment [3] (first compound 0.01 µM) it was 0.984; in experiment [3] (first compound 0.03162 µM), 1.01. The relative viability is 1.06 in experiment [3] (first compound 0.1 µM); 1.01 in experiment [3] (first compound 0.3162 µM); 0.936 in experiment [3] (first compound 1 µM); 1.02 in experiment [4] (first compound 0.01 µM); 1.05 in experiment [4] (first compound 0.03162 µM); 0.972 in experiment [4] (first compound 0.1 µM). The relative viability in experiment [4] (first compound 0.3162 µM) is 0.992; in experiment [4] (first compound 1 µM), 0.926.

The values above are taken from the supplement of paper PMC10307832.
